Literature values, collected in patent US20160045465A1, “THERAPEUTIC FORMULATIONS FOR THE TREATMENT OF COLD AND FLU-LIKE SYMPTOMS” (Kingsway Pharmaceuticals Inc., priority 2007, published 2016).
Counter-ions that a name gives are not always drawn. Like-named read-outs stand apart in the source and are kept apart here.

Experiments:
[1] = in vivo
[2] = not given; remark: listed apart in the source
[3] = oral, 30 mg as tablets or oral solution
[4] = children, ibuprofen suspension, oral

CNC[C@H](O)c1cccc(O)c1 [phenylephrine hydrochloride]
pKa: 8.86

CNC[C@H](O)c1cccc(O)c1 [phenylephrine]
efficacy compared with pseudoephedrine [1]: less efficacious than pseudoephedrine | elimination half-life ([2]; in vivo): 2 to 3 h | bioavailability following oral administration ([2]; oral): approximately 38% | time of peak serum concentrations ([2]; oral): 0.75 to 2.0 h | duration of nasal decongestion (nasal congestion; oral phenylephrine): 2 to 4 h | onset of nasal decongestion (nasal congestion; oral phenylephrine): 15 to 20 min

CN[C@@H](C)[C@@H](O)c1ccccc1 [pseudoephedrine hydrochloride]
duration of nasal decongestion (nasal congestion; 120 mg in extended-release capsules): up to 12 hours | duration of nasal decongestion (nasal congestion; oral administration of 60 mg): 8 h | duration of nasal decongestion (nasal congestion; [3]): 4 to 6 h | onset of nasal decongestion (nasal congestion; [3]): ≤ 30 min

CC(=O)Nc1ccc(O)cc1 [acetaminophen, N-(4-hydroxyphenyl)ethanamide]
fraction in the body undergoing conjugation (glucuronic acid, sulphuric acid) ([2]; in vivo): 80-85% | plasma half-life ([2]; in vivo): 1.2 to 3.0 h | time to peak plasma concentrations ([2]; oral administration of immediate release acetaminophen preparations): 0.167 to 1 h

CN[C@@H](C)[C@@H](O)c1ccccc1 [pseudoephedrine]
time to peak plasma concentrations ([2]; 60-mg dose as an oral solution): 1.39 to 2.0 h | time to peak plasma concentrations ([2]; 120-mg dose as an oral solution): 1.84 to 1.97 h | time to peak plasma concentrations ([2]; extended-release products): 3.8 to 6.1 h | fraction of a dose excreted unchanged in urine ([2]; in vivo): 55-96% | elimination half-life ([2]; urinary pH 5): 3 to 6 h | elimination half-life ([2]; urinary pH 5.8): 5 to 8 h | elimination half-life ([2]; urinary pH 8): 9 to 16 h

CC(C)Cc1ccc(C(C)C(=O)O)cc1 (centres unmarked) [ibuprofen, 2-[4-(2-methylpropyl)phenyl]propanoic acid]
onset of antipyretic effect (fever; [4]): ≤ 1 h | time of peak antipyretic effect (fever; [4]): 2 to 4 h | duration of antipyretic effect (fever; single ibuprofen suspension doses of 10-mg/kg): up to 8 hours | time to reach maximal plasma concentration ([2]; conventional tablets): approximately 120 minutes | time until excretion is essentially complete ([2]; following oral administration): ≤ 24 h | fraction of an oral dose absorbed from the GI tract ([2]; in vivo, po): Approximately 80% | reduction of peak plasma concentrations when administered with food ([2]; with food): 30-50% | change of time to achieve peak plasma concentrations when administered with food ([2]; with food, given as 'reduced by'): 30 to 60 min
